PubChem BioAssay (NCI)
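Assay format: 96-well plates, 48-hour exposure. Here, GI50 denotes the concentration required for 50% inhibition of growth. TGI: concentration producing complete growth inhibition.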

Experiments:
Test in all cases: NCI anticancer screen, dose series, 48 h
COLO 205 colon = tested on: COLO 205 colon
HS 578T breast = tested on: HS 578T breast
SR leukemia = tested on: SR leukemia
K-562 leukemia = tested on: K-562 leukemia
HOP-92 NSCLC = tested on: HOP-92 NSCLC
HCT-116 colon = tested on: HCT-116 colon
HCC-2998 colon = tested on: HCC-2998 colon
CAKI-1 renal = tested on: CAKI-1 renal
SF-268 CNS = tested on: SF-268 CNS
SK-MEL-28 melanoma = tested on: SK-MEL-28 melanoma
SNB-75 CNS = tested on: SNB-75 CNS
TK-10 renal = tested on: TK-10 renal
SF-539 CNS = tested on: SF-539 CNS
OVCAR-8 ovarian = tested on: OVCAR-8 ovarian
SK-MEL-2 melanoma = tested on: SK-MEL-2 melanoma
SK-MEL-5 melanoma = tested on: SK-MEL-5 melanoma
PC-3 prostate = tested on: PC-3 prostate
OVCAR-5 ovarian = tested on: OVCAR-5 ovarian
MCF7 breast = tested on: MCF7 breast
DU-145 prostate = tested on: DU-145 prostate
A498 renal = tested on: A498 renal
UO-31 renal = tested on: UO-31 renal
U251 CNS = tested on: U251 CNS
SNB-19 CNS = tested on: SNB-19 CNS
NCI-H23 lung = tested on: NCI-H23 lung
SF-295 CNS = tested on: SF-295 CNS
HL-60(TB) leukemia = tested on: HL-60(TB) leukemia
HOP-62 NSCLC = tested on: HOP-62 NSCLC
NCI-H460 lung = tested on: NCI-H460 lung

`O=C(CSc1nnc(-c2ccc(Cl)cc2)n1-c1ccccc1)Nc1ccc(Cl)cc1` was tested, and the TGI (COLO 205 colon) was over 100 µM, the GI50 (HS 578T breast) was 3.52 µM and the TGI (HS 578T breast) was over 100 µM. It also gave a GI50 (SR leukemia) of 4.28 µM, a TGI (SR leukemia) of over 100 µM and a GI50 (K-562 leukemia) of 13.4 µM. For the same compound, the TGI (K-562 leukemia) was over 100 µM, the GI50 (HOP-92 NSCLC) was 2.72 µM and the TGI (HOP-92 NSCLC) was 9.6 µM. The GI50 (HCT-116 colon) was 1.98 µM, the TGI (HCT-116 colon) was 4.29 µM and the GI50 (HCC-2998 colon) was 43.9 µM. It also gave a TGI (HCC-2998 colon) of over 100 µM, a GI50 (CAKI-1 renal) of 2.95 µM and a TGI (CAKI-1 renal) of 13 µM. For the same compound, the GI50 (SF-268 CNS) was 4.85 µM, the TGI (SF-268 CNS) was over 100 µM and the GI50 (SK-MEL-28 melanoma) was 15.4 µM. For the same compound, the TGI (SK-MEL-28 melanoma) was over 100 µM, the GI50 (SNB-75 CNS) was 1.57 µM and the TGI (SNB-75 CNS) was 4.57 µM. It also gave a GI50 (TK-10 renal) of 2.2 µM, a TGI (TK-10 renal) of 5.76 µM and a GI50 (SF-539 CNS) of 2.38 µM. For the same compound, the TGI (SF-539 CNS) was 5.18 µM, the GI50 (OVCAR-8 ovarian) was 3.79 µM and the TGI (OVCAR-8 ovarian) was 29.9 µM. The GI50 (SK-MEL-2 melanoma) was 13.6 µM, the TGI (SK-MEL-2 melanoma) was 63.8 µM and the GI50 (SK-MEL-5 melanoma) was 8.07 µM. The TGI (SK-MEL-5 melanoma) was over 100 µM, the GI50 (PC-3 prostate) was 20.1 µM and the TGI (PC-3 prostate) was over 100 µM. It also gave a GI50 (OVCAR-5 ovarian) of 4.89 µM, a TGI (OVCAR-5 ovarian) of over 100 µM and a GI50 (MCF7 breast) of 5.76 µM. It also gave a TGI (MCF7 breast) of over 100 µM, a GI50 (DU-145 prostate) of 7.41 µM and a TGI (DU-145 prostate) of over 100 µM. For the same compound, the GI50 (A498 renal) was 1.88 µM, the TGI (A498 renal) was 5.15 µM and the GI50 (UO-31 renal) was 1.83 µM. It also gave a TGI (UO-31 renal) of 5.2 µM, a GI50 (U251 CNS) of 3.2 µM and a TGI (U251 CNS) of 11.5 µM. It also gave a GI50 (SNB-19 CNS) of 7.08 µM, a TGI (SNB-19 CNS) of over 100 µM and a GI50 (NCI-H23 lung) of 5.09 µM. It also gave a TGI (NCI-H23 lung) of 43.7 µM, a GI50 (SF-295 CNS) of 5.56 µM and a TGI (SF-295 CNS) of 21.1 µM. For the same compound, the GI50 (HL-60(TB) leukemia) was over 100 µM, the TGI (HL-60(TB) leukemia) was over 100 µM and the GI50 (HOP-62 NSCLC) was 3.34 µM. It also gave a TGI (HOP-62 NSCLC) of 16 µM, a GI50 (NCI-H460 lung) of 2.77 µM and a TGI (NCI-H460 lung) of 8.09 µM.
